Reference: patent US20070049564A1 (Wyeth, priority 2005, published 2007)
Values after ≈ are worked out from the molar mass of the structure shown. Like-named read-outs stand apart in the source and are kept apart here.

Experiments:
E. coli GC 2231 = test: MIC, broth microdilution; conditions: Escherichia coli
E. coli GC 2232 = test: MIC, broth microdilution; conditions: Escherichia coli
E. coli GC 2234 = test: MIC, broth microdilution; conditions: Escherichia coli
E. coli GC 2272 = test: MIC, broth microdilution; conditions: Escherichia coli
E. coli GC 3226 = test: MIC, broth microdilution; conditions: Escherichia coli
S. typhimurium GC 2172 = test: MIC, broth microdilution; conditions: Salmonella enterica, TYPHIMURIUM
S. aureus GC 1131 = test: MIC, broth microdilution; conditions: Staphylococcus aureus
S. aureus GC 6466 = test: MIC, broth microdilution; conditions: Staphylococcus aureus
Experimental: Antimicrobial susceptibility testing. The in vitro activities of the antibiotics are determined by the broth microdilution method as recommended by the National Committee for Clinical Laboratory Standards (NCCLS) (1). Mueller-Hinton II broth (MHBII)(BBL Cockeysville, Md.) is the medium employed in the testing procedures. Microtiter plates containing serial dilutions of each antimicrobial agent are inoculated with each organism to yield the appropriate density (10^5 CFU/ml) in a 100 μl final volume. The plates are incubated for 18-22 hours at 35° C. in ambient air. […] Standard Pharmacological Test Procedures
Presented in Tables I-XIII are representative compounds of Formula I which were evaluated against a panel of 40 selected gram-positive and gram-negative bacteria strains by pre-incubation in water, mouse serum or human serum. Representative compounds were first incubated in mouse serum for an hour prior to the in vitro testing against a panel of selected gram-positive and gram-negative bacteria strains. All compounds were also pre-incubated in water for an hour prior to testing as control. Representative compounds of Formula I were incubated in human serum prior to MIC determination.

S. aureus GC 1079 = test: MIC, broth microdilution; conditions: Staphylococcus aureus
S. aureus GC 2216 = test: MIC, broth microdilution; conditions: Staphylococcus aureus
S. aureus GC 6335 = test: MIC, broth microdilution; conditions: Staphylococcus aureus
S. epidermidis GC 4935 = test: MIC, broth microdilution; conditions: Staphylococcus epidermidis
E. faecalis GC 2267 = test: MIC, broth microdilution; conditions: Enterococcus faecalis
E. faecium GC 4556 = test: MIC, broth microdilution; conditions: Enterococcus faecium
E. faecium GC 2243 = test: MIC, broth microdilution; conditions: Enterococcus faecium
S. pneumoniae* GC 4465 = test: MIC, broth microdilution; conditions: Streptococcus pneumoniae
S. pneumoniae+ GC 4465 = test: MIC, broth microdilution; conditions: Streptococcus pneumoniae
S. pyogenes GC 4563 = test: MIC, broth microdilution; conditions: Streptococcus pyogenes
c. albicans GC 3066 = test: MIC, broth microdilution; conditions: for MIC: Candida albicans, GC3066, read-out: MINIMAL INHIBITORY CONCENTRATION MIC; for MINIMAL INHIBITORY CONCENTRATION MIC: pre-incubated in Water
Staph. aureus Smith = test: In vivo activity (oral, iv; ED50) against Staph. aureus Smith in mice
Experimental: Representative examples of compounds of Formula I were tested for the oral efficacy using S. aureus Smith in mice.

[1] = GC2231, read-out: MINIMAL INHIBITORY CONCENTRATION MIC, pre-incubated in Mouse Serum
[2] = GC2231, read-out: MINIMAL INHIBITORY CONCENTRATION MIC, pre-incubated in Water
[3] = GC2232, read-out: MINIMAL INHIBITORY CONCENTRATION MIC, pre-incubated in Mouse Serum
[4] = GC2232, read-out: MINIMAL INHIBITORY CONCENTRATION MIC, pre-incubated in Water
[5] = GC2234, read-out: MINIMAL INHIBITORY CONCENTRATION MIC, pre-incubated in Mouse Serum
[6] = GC2234, read-out: MINIMAL INHIBITORY CONCENTRATION MIC, pre-incubated in Water
[7] = GC2272, read-out: MINIMAL INHIBITORY CONCENTRATION MIC, pre-incubated in Mouse Serum
[8] = GC2272, read-out: MINIMAL INHIBITORY CONCENTRATION MIC, pre-incubated in Water
[9] = GC3226, read-out: MINIMAL INHIBITORY CONCENTRATION MIC, pre-incubated in Mouse Serum
[10] = GC3226, read-out: MINIMAL INHIBITORY CONCENTRATION MIC, pre-incubated in Water
[11] = read-out: MINIMAL INHIBITORY CONCENTRATION MIC, pre-incubated in Mouse Serum
[12] = read-out: MINIMAL INHIBITORY CONCENTRATION MIC, pre-incubated in Water
[13] = GC1131, read-out: MINIMAL INHIBITORY CONCENTRATION MIC, pre-incubated in Mouse Serum
[14] = GC1131, read-out: MINIMAL INHIBITORY CONCENTRATION MIC, pre-incubated in Water
[15] = GC6466, read-out: MINIMAL INHIBITORY CONCENTRATION MIC, pre-incubated in Mouse Serum
[16] = GC6466, read-out: MINIMAL INHIBITORY CONCENTRATION MIC, pre-incubated in Water
[17] = GC1079, read-out: MINIMAL INHIBITORY CONCENTRATION MIC, pre-incubated in Mouse Serum
[18] = GC1079, read-out: MINIMAL INHIBITORY CONCENTRATION MIC, pre-incubated in Water
[19] = GC2216, read-out: MINIMAL INHIBITORY CONCENTRATION MIC, pre-incubated in Mouse Serum
[20] = GC2216, read-out: MINIMAL INHIBITORY CONCENTRATION MIC, pre-incubated in Water
[21] = GC6335, read-out: MINIMAL INHIBITORY CONCENTRATION MIC, pre-incubated in Mouse Serum
[22] = GC6335, read-out: MINIMAL INHIBITORY CONCENTRATION MIC, pre-incubated in Water
[23] = GC4935, read-out: MINIMAL INHIBITORY CONCENTRATION MIC, pre-incubated in Mouse Serum
[24] = GC4935, read-out: MINIMAL INHIBITORY CONCENTRATION MIC, pre-incubated in Water
[25] = GC2267, read-out: MINIMAL INHIBITORY CONCENTRATION MIC, pre-incubated in Mouse Serum
[26] = GC2267, read-out: MINIMAL INHIBITORY CONCENTRATION MIC, pre-incubated in Water
[27] = GC4556, read-out: MINIMAL INHIBITORY CONCENTRATION MIC, pre-incubated in Mouse Serum
[28] = GC4556, read-out: MINIMAL INHIBITORY CONCENTRATION MIC, pre-incubated in Water
[29] = GC2243, read-out: MINIMAL INHIBITORY CONCENTRATION MIC, pre-incubated in Mouse Serum
[30] = GC2243, read-out: MINIMAL INHIBITORY CONCENTRATION MIC, pre-incubated in Water
[31] = GC4563, read-out: MINIMAL INHIBITORY CONCENTRATION MIC, pre-incubated in Mouse Serum
[32] = GC4563, read-out: MINIMAL INHIBITORY CONCENTRATION MIC, pre-incubated in Water
[33] = Staphylococcus aureus, in Mus musculus, po, read-out: ED50 Staph Smith SOD
[34] = iv, read-out: ED50 Staph Smith SIV

Row | SMILES | MIC (E. coli GC 2231; [1]) | MIC (E. coli GC 2231; [2]) | MIC (E. coli GC 2232; [3]) | MIC (E. coli GC 2232; [4]) | MIC (E. coli GC 2234; [5]) | MIC (E. coli GC 2234; [6]) | MIC (E. coli GC 2272; [7]) | MIC (E. coli GC 2272; [8]) | MIC (E. coli GC 3226; [9]) | MIC (E. coli GC 3226; [10]) | MIC (S. typhimurium GC 2172; [11]) | MIC (S. typhimurium GC 2172; [12]) | MIC (S. aureus GC 1131; [13]) | MIC (S. aureus GC 1131; [14]) | MIC (S. aureus GC 6466; [15]) | MIC (S. aureus GC 6466; [16]) | MIC (S. aureus GC 1079; [17]) | MIC (S. aureus GC 1079; [18]) | MIC (S. aureus GC 2216; [19]) | MIC (S. aureus GC 2216; [20]) | other results
1 | CCCCN(CC(=O)Nc1cc(N(C)C)c2c(c1O)C(=O)C1=C(O)[C@]3(O)C(=O)C(C(N)=O)=C(O)[C@@H](N(C)C)[C@@H]3C[C@@H]1C2)C(=O)OCOC(=O)c1cc(C)cc(C)c1 [Example 22, ({[(2-{[(5aR,6aS,7S,10aS)-9-(aminocarbonyl)-4,7-bis(dimethylamino)-1,8,10a,11-tetrahydroxy-10,12-dioxo-5,5a,6,6a,7,10,10a,12-octahydrotetracen-2-yl]amino}-2-oxoethyl)(butyl)amino]carbonyl}oxy)methyl 3,5-dimethylbenzoate] | 2 µg/mL (≈ 2.53 µM) | > 64 µg/mL | 2 µg/mL (≈ 2.53 µM) | > 64 µg/mL | 1 µg/mL (≈ 1.26 µM) | > 64 µg/mL | 1 µg/mL (≈ 1.26 µM) | > 64 µg/mL | 8 µg/mL (≈ 10.1 µM) | > 64 µg/mL | 8 µg/mL (≈ 10.1 µM) | > 64 µg/mL | 1 µg/mL (≈ 1.26 µM) | 4 µg/mL (≈ 5.05 µM) | 0.5 µg/mL (≈ 0.631 µM) | 2 µg/mL (≈ 2.53 µM) | 2 µg/mL (≈ 2.53 µM) | 32 µg/mL (≈ 40.4 µM) | 1 µg/mL (≈ 1.26 µM) | 4 µg/mL (≈ 5.05 µM) | MIC (S. aureus GC 6335; [21]): 2 µg/mL (≈ 2.53 µM); MIC (S. aureus GC 6335; [22]): 8 µg/mL (≈ 10.1 µM); MIC (S. epidermidis GC 4935; [23]): 2 µg/mL (≈ 2.53 µM); MIC (S. epidermidis GC 4935; [24]): 16 µg/mL (≈ 20.2 µM); MIC (E. faecalis GC 2267; [25]): 4 µg/mL (≈ 5.05 µM); MIC (E. faecalis GC 2267; [26]): 64 µg/mL (≈ 80.8 µM); MIC (E. faecium GC 4556; [27]): 2 µg/mL (≈ 2.53 µM); MIC (E. faecium GC 4556; [28]): 64 µg/mL (≈ 80.8 µM); MIC (E. faecium GC 2243; [29]): 1 µg/mL (≈ 1.26 µM); MIC (E. faecium GC 2243; [30]): 8 µg/mL (≈ 10.1 µM); MIC (S. pneumoniae* GC 4465; [11]): 0.5 µg/mL (≈ 0.631 µM); MIC (S. pneumoniae* GC 4465; [12]): 1 µg/mL (≈ 1.26 µM); MIC (S. pneumoniae+ GC 4465; [11]): 4 µg/mL (≈ 5.05 µM); MIC (S. pneumoniae+ GC 4465; [12]): 16 µg/mL (≈ 20.2 µM); MIC (S. pyogenes GC 4563; [31]): 0.5 µg/mL (≈ 0.631 µM); MIC (S. pyogenes GC 4563; [32]): 1 µg/mL (≈ 1.26 µM); MIC (c. albicans GC 3066): > 64 µg/mL; MINIMAL INHIBITORY CONCENTRATION MIC (c. albicans GC 3066): >64 UG/ML; ED50 (Staph. aureus Smith; [33]): 18.8 mg/kg; ED50 (Staph. aureus Smith; [34]): 0.43 mg/kg
2 | CCCCN(CC(=O)Nc1cc(N(C)C)c2c(c1O)C(=O)C1=C(O)[C@]3(O)C(=O)C(C(N)=O)=C(O)[C@@H](N(C)C)[C@@H]3C[C@@H]1C2)C(=O)OCOC(=O)c1cccs1 [Example 23, ({[(2-{[(5aR,6aS,7S,10aS)-9-(aminocarbonyl)-4,7-bis(dimethylamino)-1,8,10a,11-tetrahydroxy-10,12-dioxo-5,5a,6,6a,7,10,10a,12-octahydrotetracen-2-yl]amino}-2-oxoethyl)(butyl)amino]carbonyl}oxy)methyl thiophene-2-carboxylate] | 2 µg/mL (≈ 2.6 µM) | > 64 µg/mL | 1 µg/mL (≈ 1.3 µM) | > 64 µg/mL | 1 µg/mL (≈ 1.3 µM) | > 64 µg/mL | 1 µg/mL (≈ 1.3 µM) | > 64 µg/mL | 8 µg/mL (≈ 10.4 µM) | > 64 µg/mL | 4 µg/mL (≈ 5.2 µM) | > 64 µg/mL | 1 µg/mL (≈ 1.3 µM) | 2 µg/mL (≈ 2.6 µM) | 0.25 µg/mL (≈ 0.325 µM) | 0.5 µg/mL (≈ 0.649 µM) | 2 µg/mL (≈ 2.6 µM) | 4 µg/mL (≈ 5.2 µM) | 1 µg/mL (≈ 1.3 µM) | 4 µg/mL (≈ 5.2 µM) | MIC (S. aureus GC 6335; [21]): 2 µg/mL (≈ 2.6 µM); MIC (S. aureus GC 6335; [22]): 4 µg/mL (≈ 5.2 µM); MIC (S. epidermidis GC 4935; [23]): 2 µg/mL (≈ 2.6 µM); MIC (S. epidermidis GC 4935; [24]): 4 µg/mL (≈ 5.2 µM); MIC (E. faecalis GC 2267; [25]): 2 µg/mL (≈ 2.6 µM); MIC (E. faecalis GC 2267; [26]): 8 µg/mL (≈ 10.4 µM); MIC (E. faecium GC 4556; [27]): 2 µg/mL (≈ 2.6 µM); MIC (E. faecium GC 4556; [28]): 4 µg/mL (≈ 5.2 µM); MIC (E. faecium GC 2243; [29]): 0.5 µg/mL (≈ 0.649 µM); MIC (E. faecium GC 2243; [30]): 4 µg/mL (≈ 5.2 µM); MIC (S. pneumoniae* GC 4465; [11]): 0.12 µg/mL (≈ 0.156 µM); MIC (S. pneumoniae* GC 4465; [12]): 0.12 µg/mL (≈ 0.156 µM); MIC (S. pneumoniae+ GC 4465; [11]): 4 µg/mL (≈ 5.2 µM); MIC (S. pneumoniae+ GC 4465; [12]): 8 µg/mL (≈ 10.4 µM); MIC (S. pyogenes GC 4563; [31]): 0.12 µg/mL (≈ 0.156 µM); MIC (S. pyogenes GC 4563; [32]): 0.25 µg/mL (≈ 0.325 µM); MIC (c. albicans GC 3066): > 64 µg/mL; MINIMAL INHIBITORY CONCENTRATION MIC (c. albicans GC 3066): >64 UG/ML; ED50 (Staph. aureus Smith; [33]): 19 mg/kg; ED50 (Staph. aureus Smith; [34]): 0.47 mg/kg
